Laboratory results taken from publication PMC8763936 (Investigational New Drugs, 2021).

Tests used:
[1] = tested on: CYPs 1A2, 2B6, 2C8, 2C9, 2C19 and 2D6 (all tested CYPs but CYP3A4/5); assay: In vitro CYP inhibition in human liver microsomes, CYPs not named one by one; assay type: in vitro ADME; conditions: human, read-out: IC50 for the other CYPs tested
Protocol: (§1) In vitro induction of CYP mRNA (CYPs 1A2, 2C8, 2C9 and 3A4) or enzyme activity (CYPs 1A2, 2C19 and 3A4) was assessed in human hepatocytes.

[2] = humans, mass balance study; cited from earlier work
CYP2B6 = assay: Induction of CYP enzymes in human hepatocytes; assay type: in vitro ADME; conditions: percent of positive control
Protocol: as §1

[3] = Intrinsic clearance in long-term micropatterned co-cultured human hepatocytes; assay type: in vitro ADME
[4] = Estimated free plasma Cmax in patients treated at 600 mg QD; assay type: in vivo, human; conditions: unbound fraction of 1% used
[5] = tested on: human CYPs 1A2, 2B6, 2C8, 2C9, 2C19, 2D6 and 3A; assay: In vitro CYP inhibition in human liver microsomes, CYPs not named one by one; assay type: in vitro ADME; conditions: entrectinib: all but CYP3A4/5, M5: all but CYP2C8, read-out: IC50 for the other CYPs tested
Protocol: as §1

P-gp = P-gp (Homo sapiens, UniProt P08183); assay: In vitro P-gp substrate assay (Caco-2 and MDCKII-MDR1 cells); assay type: in vitro ADME; design: expressed in transfected cells; host or cells: MDCKII-MDR1 cells; also Caco-2 cells
[6] = tested on: CYPs 1A2, 2B6, 2C19, and 3A4; assay: Induction of CYP enzymes in human hepatocytes, CYPs tested taken together; assay type: in vitro ADME
Protocol: as §1

Chain of P-gp (P08183 whole entry): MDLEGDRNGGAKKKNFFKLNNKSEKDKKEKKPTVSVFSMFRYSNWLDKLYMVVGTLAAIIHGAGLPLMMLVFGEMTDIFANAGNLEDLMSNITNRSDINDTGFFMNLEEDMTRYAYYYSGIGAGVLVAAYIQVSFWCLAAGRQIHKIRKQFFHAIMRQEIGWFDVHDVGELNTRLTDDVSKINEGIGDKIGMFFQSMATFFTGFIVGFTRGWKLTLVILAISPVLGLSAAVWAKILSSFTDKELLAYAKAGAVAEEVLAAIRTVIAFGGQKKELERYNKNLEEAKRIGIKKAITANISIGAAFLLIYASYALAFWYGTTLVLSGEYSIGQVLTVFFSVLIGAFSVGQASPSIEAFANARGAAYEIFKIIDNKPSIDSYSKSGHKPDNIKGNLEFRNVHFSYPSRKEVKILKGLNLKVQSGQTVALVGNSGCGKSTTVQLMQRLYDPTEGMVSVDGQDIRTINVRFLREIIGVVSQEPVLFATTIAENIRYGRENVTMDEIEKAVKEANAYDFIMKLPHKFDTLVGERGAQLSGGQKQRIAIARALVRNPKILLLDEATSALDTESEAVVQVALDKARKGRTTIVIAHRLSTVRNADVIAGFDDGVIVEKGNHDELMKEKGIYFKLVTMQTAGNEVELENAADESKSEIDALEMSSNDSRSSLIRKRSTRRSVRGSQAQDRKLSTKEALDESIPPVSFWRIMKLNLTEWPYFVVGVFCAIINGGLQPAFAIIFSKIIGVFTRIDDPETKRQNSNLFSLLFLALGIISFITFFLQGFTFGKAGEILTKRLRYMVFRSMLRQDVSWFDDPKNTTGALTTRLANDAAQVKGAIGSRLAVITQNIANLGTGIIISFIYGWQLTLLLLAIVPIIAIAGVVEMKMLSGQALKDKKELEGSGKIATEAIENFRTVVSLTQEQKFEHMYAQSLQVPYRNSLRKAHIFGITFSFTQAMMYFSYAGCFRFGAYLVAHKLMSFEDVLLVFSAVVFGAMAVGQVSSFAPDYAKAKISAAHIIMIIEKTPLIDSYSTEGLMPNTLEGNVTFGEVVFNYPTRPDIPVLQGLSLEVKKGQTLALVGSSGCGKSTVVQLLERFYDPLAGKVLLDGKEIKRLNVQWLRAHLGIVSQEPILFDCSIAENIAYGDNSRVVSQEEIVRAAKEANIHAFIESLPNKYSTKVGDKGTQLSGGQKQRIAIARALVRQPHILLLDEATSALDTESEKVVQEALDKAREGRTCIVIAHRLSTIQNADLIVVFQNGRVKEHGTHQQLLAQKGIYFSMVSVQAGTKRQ

| SMILES | IC50 [1] | share of total circulating radioactivity [2] | Relative Effectiveness ± SD Based on CYP Activity (CYP2B6; M5 0.5 µM) | Relative Effectiveness ± SD Based on CYP mRNA (CYP2B6; M5 0.5 µM) | Relative Effectiveness ± SD Based on CYP Activity (CYP2B6; M5 2.5 µM) | Relative Effectiveness ± SD Based on CYP mRNA (CYP2B6; M5 2.5 µM) | Relative Effectiveness ± SD Based on CYP Activity (CYP2B6; M5 10 µM) | Relative Effectiveness ± SD Based on CYP mRNA (CYP2B6; M5 10 µM) | intrinsic clearance relative to entrectinib [3] | estimated free Cmax in plasma [4] | IC50 [5] | P-gp substrate status (P-gp) | impact on the activities of the CYPs tested [6] |
| --- | --- | --- | --- | --- | --- | --- | --- | --- | --- | --- | --- | --- | --- |
| CN1CCN(c2ccc(C(=O)Nc3n[nH]c4ccc(Cc5cc(F)cc(F)c5)cc34)c(NC3CCOCC3)c2)CC1 [Entrectinib] | > 10 µM |  |  |  |  |  |  |  |  |  |  |  |  |
| O=C(Nc1n[nH]c2ccc(Cc3cc(F)cc(F)c3)cc12)c1ccc(N2CCNCC2)cc1NC1CCOCC1 [M5] |  | 12% | 2.98% ±2.91 | 4.22% ±4.37 | 9.02% ±8.75 | 19.3% ±11.4 | 9.56% ±8.52 | 26.5% ±10.7 | approximately twofold lower intrinsic clearance than entrectinib | 13.4 nM | > 10 µM | substrate | no significant impact |
